The kinase profiling compilation of Christmann-Franck et al. (2016)

Tests used:
Assay in all cases: radiometric filter-binding kinase assay, Kinase HotSpot
Settings in all cases: compound 0.5 µM; ATP 10 µM
[1] = molecular target: CDC42BPB (human) (UniProt Q9Y5S2)
[2] = molecular target: FGFR4 (human) (UniProt P22455)
[3] = molecular target: PHKG2 (human) (UniProt P15735)
[4] = molecular target: ULK2 (human) (UniProt Q8IYT8)
[5] = molecular target: PIM1 (human) (UniProt P11309)
[6] = molecular target: NLK (human) (UniProt Q9UBE8)
[7] = molecular target: HIPK4 (human) (UniProt Q8NE63)
[8] = molecular target: MAPK11 (human) (UniProt Q15759)
[9] = molecular target: MAP3K8 (human) (UniProt P41279)
[10] = molecular target: SGK2 (human) (UniProt Q9HBY8)
[11] = molecular target: RPS6KA1 KD1 KD2 (human) (UniProt Q15418)
[12] = molecular target: TEK (human) (UniProt Q02763)
[13] = molecular target: PRKX (human) (UniProt P51817)
[14] = molecular target: WNK3 (human) (UniProt Q9BYP7)
[15] = molecular target: MAP3K3 (human) (UniProt Q99759)
[16] = molecular target: CAMK1 (human) (UniProt Q14012)
[17] = molecular target: CAMK4 (human) (UniProt Q16566)
[18] = molecular target: STK17A (human) (UniProt Q9UEE5)
[19] = molecular target: CSNK1G1 (human) (UniProt Q9HCP0)
[20] = molecular target: DYRK1B (human) (UniProt Q9Y463)
[21] = molecular target: PRKCB1 (human) (UniProt P05771)
[22] = molecular target: EPHA2 (human) (UniProt P29317)
[23] = molecular target: CSNK2A1 (human) (UniProt P68400)
[24] = molecular target: ALK (human) (UniProt Q9UM73)
[25] = molecular target: RPS6KA2 KD1 KD2 (human) (UniProt Q15349)
[26] = molecular target: RPS6KA5 KD2 (human) (UniProt O75582)
[27] = molecular target: TXK (human) (UniProt P42681)
[28] = molecular target: JAK1 JH1 catalytic (human) (UniProt P23458)
[29] = molecular target: CHEK2 (human) (UniProt O96017)
[30] = molecular target: MAP4K5 (human) (UniProt Q9Y4K4)
[31] = molecular target: PRKD1 (human) (UniProt Q15139)
[32] = molecular target: TNK2 (human) (UniProt Q07912)
[33] = molecular target: CDK2 CCNA2 (human) (UniProt P24941+P20248)
[34] = molecular target: DCLK2 (human) (UniProt Q8N568)
[35] = molecular target: PAK2 (human) (UniProt Q13177)
[36] = molecular target: ACVRL1 (human) (UniProt P37023)
[37] = molecular target: MAPK12 (human) (UniProt P53778)
[38] = molecular target: DYRK3 (human) (UniProt O43781)
[39] = molecular target: EPHA4 (human) (UniProt P54764)
[40] = molecular target: AKT1 (human) (UniProt P31749)
[41] = molecular target: PRKACG (human) (UniProt P22612)
[42] = molecular target: MET (human) (UniProt P08581)

Sequence of PRKD1 (human) (Q15139 whole entry, looked up): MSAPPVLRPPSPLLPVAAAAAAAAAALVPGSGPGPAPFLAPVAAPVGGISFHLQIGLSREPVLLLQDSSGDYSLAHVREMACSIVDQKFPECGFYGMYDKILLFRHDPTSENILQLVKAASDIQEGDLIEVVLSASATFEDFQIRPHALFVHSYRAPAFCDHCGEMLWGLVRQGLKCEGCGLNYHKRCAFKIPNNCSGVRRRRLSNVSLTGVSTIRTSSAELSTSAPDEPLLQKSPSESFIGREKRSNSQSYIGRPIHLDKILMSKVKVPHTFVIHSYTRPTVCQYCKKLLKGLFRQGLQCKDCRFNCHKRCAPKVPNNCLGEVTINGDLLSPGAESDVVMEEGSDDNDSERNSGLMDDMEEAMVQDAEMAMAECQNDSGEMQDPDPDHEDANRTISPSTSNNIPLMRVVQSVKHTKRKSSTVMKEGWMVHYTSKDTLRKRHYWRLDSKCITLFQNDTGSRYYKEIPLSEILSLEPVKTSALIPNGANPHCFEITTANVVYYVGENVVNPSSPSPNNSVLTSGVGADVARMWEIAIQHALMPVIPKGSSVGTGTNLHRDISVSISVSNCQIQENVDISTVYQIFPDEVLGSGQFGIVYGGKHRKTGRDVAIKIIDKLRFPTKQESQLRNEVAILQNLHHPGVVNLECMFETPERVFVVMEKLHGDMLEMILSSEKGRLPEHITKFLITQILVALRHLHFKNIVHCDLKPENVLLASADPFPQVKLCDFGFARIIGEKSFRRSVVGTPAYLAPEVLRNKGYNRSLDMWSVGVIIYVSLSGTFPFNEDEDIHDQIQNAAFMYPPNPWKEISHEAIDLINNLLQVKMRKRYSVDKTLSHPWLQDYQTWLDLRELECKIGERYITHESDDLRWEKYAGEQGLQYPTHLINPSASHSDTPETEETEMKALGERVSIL
Sequence of MAPK11 (human) (Q15759 whole entry, looked up): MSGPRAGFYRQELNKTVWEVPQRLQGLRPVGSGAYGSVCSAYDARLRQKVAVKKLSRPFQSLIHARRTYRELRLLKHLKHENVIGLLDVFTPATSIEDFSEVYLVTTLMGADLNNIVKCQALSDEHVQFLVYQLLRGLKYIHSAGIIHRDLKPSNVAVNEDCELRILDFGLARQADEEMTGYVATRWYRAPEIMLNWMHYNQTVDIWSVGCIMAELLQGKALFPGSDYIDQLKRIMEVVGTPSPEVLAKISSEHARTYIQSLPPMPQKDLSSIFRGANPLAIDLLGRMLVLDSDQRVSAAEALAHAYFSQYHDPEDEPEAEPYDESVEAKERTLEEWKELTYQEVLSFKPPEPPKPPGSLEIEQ
Sequence of DYRK1B (human) (Q9Y463 whole entry, looked up): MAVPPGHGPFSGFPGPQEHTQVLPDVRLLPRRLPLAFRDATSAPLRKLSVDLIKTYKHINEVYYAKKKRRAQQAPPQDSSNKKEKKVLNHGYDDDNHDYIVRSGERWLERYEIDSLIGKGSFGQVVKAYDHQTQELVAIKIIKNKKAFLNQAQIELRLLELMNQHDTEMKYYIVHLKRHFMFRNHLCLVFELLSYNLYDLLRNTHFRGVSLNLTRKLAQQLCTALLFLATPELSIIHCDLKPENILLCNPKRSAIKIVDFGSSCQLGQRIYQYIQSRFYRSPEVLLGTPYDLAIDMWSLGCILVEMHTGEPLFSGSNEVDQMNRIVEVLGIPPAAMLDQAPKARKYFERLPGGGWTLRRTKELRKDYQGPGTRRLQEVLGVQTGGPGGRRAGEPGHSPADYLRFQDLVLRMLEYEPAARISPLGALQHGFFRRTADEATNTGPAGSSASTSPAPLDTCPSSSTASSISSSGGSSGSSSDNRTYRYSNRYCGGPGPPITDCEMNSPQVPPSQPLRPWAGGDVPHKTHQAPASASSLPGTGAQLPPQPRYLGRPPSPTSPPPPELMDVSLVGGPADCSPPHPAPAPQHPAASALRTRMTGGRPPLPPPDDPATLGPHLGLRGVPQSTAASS
Sequence of CAMK4 (human) (Q16566 whole entry, looked up): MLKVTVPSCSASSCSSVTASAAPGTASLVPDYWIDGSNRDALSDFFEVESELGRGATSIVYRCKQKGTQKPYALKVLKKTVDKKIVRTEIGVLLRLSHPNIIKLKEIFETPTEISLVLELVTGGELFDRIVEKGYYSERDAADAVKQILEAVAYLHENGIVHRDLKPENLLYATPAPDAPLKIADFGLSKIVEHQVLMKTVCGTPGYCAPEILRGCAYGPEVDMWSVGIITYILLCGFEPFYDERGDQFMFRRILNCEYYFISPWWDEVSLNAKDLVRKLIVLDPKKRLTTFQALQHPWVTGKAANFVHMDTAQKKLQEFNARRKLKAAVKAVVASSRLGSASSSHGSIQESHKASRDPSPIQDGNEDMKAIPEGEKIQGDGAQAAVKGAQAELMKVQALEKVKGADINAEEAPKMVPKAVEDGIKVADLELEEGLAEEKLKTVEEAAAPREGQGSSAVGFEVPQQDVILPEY
Sequence of PIM1 (human) (P11309 whole entry, looked up): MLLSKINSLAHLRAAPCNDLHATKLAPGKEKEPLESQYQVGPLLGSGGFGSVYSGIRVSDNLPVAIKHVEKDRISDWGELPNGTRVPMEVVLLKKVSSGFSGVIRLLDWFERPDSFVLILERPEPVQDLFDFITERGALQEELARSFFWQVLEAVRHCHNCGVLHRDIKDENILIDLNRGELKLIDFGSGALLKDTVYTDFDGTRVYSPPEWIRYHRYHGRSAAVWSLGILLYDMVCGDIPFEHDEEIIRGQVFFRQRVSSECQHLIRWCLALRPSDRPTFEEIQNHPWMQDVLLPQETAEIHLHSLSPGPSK
Sequence of MAP4K5 (human) (Q9Y4K4 whole entry, looked up): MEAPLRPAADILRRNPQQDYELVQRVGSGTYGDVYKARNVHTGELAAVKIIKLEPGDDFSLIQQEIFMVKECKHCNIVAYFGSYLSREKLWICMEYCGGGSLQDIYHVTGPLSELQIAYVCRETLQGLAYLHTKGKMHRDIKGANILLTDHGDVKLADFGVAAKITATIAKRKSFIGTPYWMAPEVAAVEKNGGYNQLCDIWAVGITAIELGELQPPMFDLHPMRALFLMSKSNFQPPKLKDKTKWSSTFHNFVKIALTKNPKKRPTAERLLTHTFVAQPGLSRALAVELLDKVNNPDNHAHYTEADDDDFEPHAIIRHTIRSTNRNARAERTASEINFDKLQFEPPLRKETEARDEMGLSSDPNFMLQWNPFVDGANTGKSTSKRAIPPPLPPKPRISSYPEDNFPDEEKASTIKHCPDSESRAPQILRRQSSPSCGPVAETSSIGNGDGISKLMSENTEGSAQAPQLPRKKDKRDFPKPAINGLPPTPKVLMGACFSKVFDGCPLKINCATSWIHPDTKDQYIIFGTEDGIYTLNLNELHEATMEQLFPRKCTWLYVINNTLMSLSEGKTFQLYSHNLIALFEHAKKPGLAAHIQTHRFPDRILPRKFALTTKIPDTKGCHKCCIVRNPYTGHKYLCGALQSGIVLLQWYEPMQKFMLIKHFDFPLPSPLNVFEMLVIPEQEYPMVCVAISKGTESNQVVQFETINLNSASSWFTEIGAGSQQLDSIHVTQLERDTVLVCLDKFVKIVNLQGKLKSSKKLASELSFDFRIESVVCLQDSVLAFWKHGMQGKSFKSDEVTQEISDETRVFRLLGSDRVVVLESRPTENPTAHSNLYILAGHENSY
Sequence of SGK2 (human) (Q9HBY8 whole entry, looked up): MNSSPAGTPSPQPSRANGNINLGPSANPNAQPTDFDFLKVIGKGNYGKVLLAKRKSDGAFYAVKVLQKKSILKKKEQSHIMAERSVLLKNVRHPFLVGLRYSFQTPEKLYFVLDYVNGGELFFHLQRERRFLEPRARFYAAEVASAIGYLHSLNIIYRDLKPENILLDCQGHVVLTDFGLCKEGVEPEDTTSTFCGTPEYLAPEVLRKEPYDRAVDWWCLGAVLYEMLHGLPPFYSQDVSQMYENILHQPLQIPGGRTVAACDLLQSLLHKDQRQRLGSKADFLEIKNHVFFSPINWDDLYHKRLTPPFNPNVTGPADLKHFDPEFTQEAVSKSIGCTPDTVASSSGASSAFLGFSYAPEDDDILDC
Sequence of AKT1 (human) (P31749 whole entry, looked up): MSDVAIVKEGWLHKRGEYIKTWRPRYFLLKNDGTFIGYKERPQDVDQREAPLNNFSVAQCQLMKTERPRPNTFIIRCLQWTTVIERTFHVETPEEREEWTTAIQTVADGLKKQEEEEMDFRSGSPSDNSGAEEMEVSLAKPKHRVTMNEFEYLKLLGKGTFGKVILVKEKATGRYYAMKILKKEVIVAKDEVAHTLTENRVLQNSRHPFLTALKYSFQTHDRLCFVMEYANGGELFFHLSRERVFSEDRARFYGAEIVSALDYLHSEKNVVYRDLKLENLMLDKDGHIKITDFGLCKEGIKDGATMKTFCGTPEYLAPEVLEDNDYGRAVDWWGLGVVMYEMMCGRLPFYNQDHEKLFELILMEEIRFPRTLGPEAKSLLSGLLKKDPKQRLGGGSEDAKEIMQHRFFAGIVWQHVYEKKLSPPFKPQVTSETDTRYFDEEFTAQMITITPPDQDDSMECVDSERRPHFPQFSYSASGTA
Sequence of PAK2 (human) (Q13177 whole entry, looked up): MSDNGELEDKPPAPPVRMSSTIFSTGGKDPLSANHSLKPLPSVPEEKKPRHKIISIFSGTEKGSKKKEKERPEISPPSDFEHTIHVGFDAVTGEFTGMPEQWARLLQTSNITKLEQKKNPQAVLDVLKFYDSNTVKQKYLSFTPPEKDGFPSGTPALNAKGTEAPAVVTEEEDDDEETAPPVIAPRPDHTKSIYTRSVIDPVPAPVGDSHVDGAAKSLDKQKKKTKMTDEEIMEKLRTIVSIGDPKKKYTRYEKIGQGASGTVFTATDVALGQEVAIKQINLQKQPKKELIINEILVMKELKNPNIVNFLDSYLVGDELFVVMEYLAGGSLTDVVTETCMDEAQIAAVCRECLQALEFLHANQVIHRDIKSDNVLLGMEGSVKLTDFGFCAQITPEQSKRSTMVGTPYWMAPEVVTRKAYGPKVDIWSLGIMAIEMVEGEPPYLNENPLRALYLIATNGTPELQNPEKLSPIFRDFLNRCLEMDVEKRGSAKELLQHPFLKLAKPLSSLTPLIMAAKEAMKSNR

Cc1ccc(Nc2nccc(N(C)c3ccc4c(C)n(C)nc4c3)n2)cc1S(N)(=O)=O gave a residual activity [1] of 99.9%, a residual activity [2] of 68.3% and a residual activity [3] of 96.7%. For the same molecule, the residual activity [4] was 102%, the residual activity [5] was 100% and the residual activity [6] was 69%. It also gave a residual activity [7] of 109%, a residual activity [8] of 93.3% and a residual activity [9] of 95.2%. The residual activity [10] was 160%, the residual activity [11] was 92.8% and the residual activity [12] was 69.3%. It also gave a residual activity [13] of 101%, a residual activity [14] of 98.6% and a residual activity [15] of 112%. For the same molecule, the residual activity [16] was 87.4%, the residual activity [17] was 95.9% and the residual activity [18] was 95.9%. For the same molecule, the residual activity [19] was 100%, the residual activity [20] was 93.3% and the residual activity [21] was 91%. It also gave a residual activity [22] of 85.7%, a residual activity [23] of 114% and a residual activity [24] of 85.3%. The residual activity [25] was 93.2%, the residual activity [26] was 101% and the residual activity [27] was 40.2%. The residual activity [28] was 104%, the residual activity [29] was 95.1% and the residual activity [30] was 30.3%. The residual activity [31] was 96.9%, the residual activity [32] was 90.2% and the residual activity [33] was 96.1%. It also gave a residual activity [34] of 102%, a residual activity [35] of 98.9% and a residual activity [36] of 102%. It also gave a residual activity [37] of 93.7%, a residual activity [38] of 95.9% and a residual activity [39] of 94.5%. It also gave a residual activity [40] of 91.2% and a residual activity [41] of 111%.
O=C1NC(=O)c2c1c1c3ccccc3n3c1c1c2c2ccccc2n1C1CCC3O1 gave a residual activity [2] of 70.4%, a residual activity [3] of 75.6% and a residual activity [4] of 89.1%. It also gave a residual activity [5] of 0.435%, a residual activity [6] of 74.1% and a residual activity [7] of 29.1%. For the same molecule, the residual activity [8] was 108%, the residual activity [9] was 94.6% and the residual activity [10] was 18.6%. It also gave a residual activity [42] of 76.9%, a residual activity [11] of 1.58% and a residual activity [12] of 94.1%. For the same molecule, the residual activity [13] was 17.5%, the residual activity [14] was 86% and the residual activity [15] was 18.4%. It also gave a residual activity [16] of 69.7%, a residual activity [17] of 98.7% and a residual activity [18] of 8.65%. The residual activity [19] was 96.1%, the residual activity [20] was 3.15% and the residual activity [21] was 22.5%. For the same molecule, the residual activity [22] was 91.3%, the residual activity [23] was 16.7% and the residual activity [24] was 36.9%. For the same molecule, the residual activity [25] was 1.33%, the residual activity [26] was 9.88% and the residual activity [27] was 22.7%. It also gave a residual activity [28] of 22.2%, a residual activity [29] of 13% and a residual activity [30] of 2.69%. It also gave a residual activity [31] of 1.89%, a residual activity [32] of 2.39% and a residual activity [33] of 15.6%. For the same molecule, the residual activity [34] was 89.6%, the residual activity [35] was 43.9% and the residual activity [36] was 78.6%. The residual activity [37] was 113%, the residual activity [38] was 16.6% and the residual activity [39] was 91.4%. It also gave a residual activity [40] of 63.9% and a residual activity [41] of 39.8%.
